This is an account of results in publication PMC7672456 (Nucleic Acids Research, 2020).

The target of data set [1] is T1, PfLysRS (Plasmodium falciparum, UniProt Q8IDJ8). Put plainly: Thermal shift assay. The note with it: for increase of Tm of PfLysRS: 200 μM compound. Format: binding.
Data set [2] deals with T1, PfLysRS. Put plainly: Surface plasmon resonance. Format: binding. In general terms: SPR reads the build-up and loss of mass on a sensor chip optically.
The target of data set [3] is T2, HsLysRS (Homo sapiens, UniProt Q15046). Put plainly: ATP hydrolysis assay. Format: biochemical.
T2 sequence (Q15046 70-581): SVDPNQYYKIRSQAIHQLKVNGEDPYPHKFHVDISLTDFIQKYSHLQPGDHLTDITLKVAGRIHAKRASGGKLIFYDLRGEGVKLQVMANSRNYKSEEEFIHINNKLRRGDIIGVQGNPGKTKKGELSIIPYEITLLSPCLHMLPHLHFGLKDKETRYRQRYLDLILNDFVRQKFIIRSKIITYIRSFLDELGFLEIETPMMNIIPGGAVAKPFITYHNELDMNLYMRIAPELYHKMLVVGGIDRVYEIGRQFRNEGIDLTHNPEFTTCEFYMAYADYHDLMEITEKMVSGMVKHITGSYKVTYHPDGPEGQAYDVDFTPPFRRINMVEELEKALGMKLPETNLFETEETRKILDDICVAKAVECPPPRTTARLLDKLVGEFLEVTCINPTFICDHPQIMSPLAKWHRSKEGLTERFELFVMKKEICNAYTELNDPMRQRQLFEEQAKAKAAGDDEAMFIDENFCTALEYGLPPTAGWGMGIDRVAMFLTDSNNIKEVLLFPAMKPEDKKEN
Data set [4] concerns the target T2, HsLysRS. Put plainly: Thermal shift assay. Format: binding. The note with it: in the presence or absence of L-lysine.
The subject of a further data set is P. falciparum strain 3D7. Put plainly: In vitro Plasmodium growth assay. Format: cell-based, Plasmodium falciparum.
Data set [5] has as its system mammalian protein translation system. Put plainly: Mammalian protein translation assay in rabbit reticulocyte lysate. Format: biochemical. The note with it: firefly luciferase mRNA.
For data set [6] the following is noted: phase I, patients, oral; cited from earlier work.
The target of data set [7] is T1, PfLysRS. The note with it: cited from earlier work.

T1 sequence (Q8IDJ8 77-583 limits assumed): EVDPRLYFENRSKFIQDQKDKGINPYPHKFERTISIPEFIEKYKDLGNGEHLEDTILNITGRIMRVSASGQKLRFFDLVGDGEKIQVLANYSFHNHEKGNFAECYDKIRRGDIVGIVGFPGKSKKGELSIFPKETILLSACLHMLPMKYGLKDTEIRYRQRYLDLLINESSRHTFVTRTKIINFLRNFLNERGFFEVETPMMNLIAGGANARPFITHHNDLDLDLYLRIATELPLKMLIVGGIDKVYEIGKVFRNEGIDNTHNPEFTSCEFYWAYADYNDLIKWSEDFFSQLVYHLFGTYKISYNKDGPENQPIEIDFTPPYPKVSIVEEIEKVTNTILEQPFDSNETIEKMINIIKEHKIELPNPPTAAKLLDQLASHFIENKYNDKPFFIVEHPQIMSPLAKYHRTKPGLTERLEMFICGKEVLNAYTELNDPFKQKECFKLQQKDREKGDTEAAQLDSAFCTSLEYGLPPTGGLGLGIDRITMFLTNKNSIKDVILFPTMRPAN

With `COc1cc(N2CCC(N3CCN(C)CC3)CC2)ccc1Nc1ncnc(Nc2ccccc2S(=O)(=O)C(C)C)n1` [ASP3026, N-{2-Methoxy-4-[4-(4-methylpiperazin-1-yl)piperidin-1-yl]phenyl}-N'-[2-(propane-2-sulfonyl)phenyl]-1,3,5-triazine-2,4-diamine], the Kd on PfLysRS [1] was ~0.238 µM; on PfLysRS [2], 0.239 µM. In addition, the “increase of Tm of PfLysRS” value on PfLysRS [1] (in the presence of L-lysine (500 μM)) stood at 8.0 °C; at PfLysRS [1] (without L-lysine, 10 μM PfLysRS), 10.0 °C. Further, the koff at PfLysRS [2] is 0.0063 s⁻¹. The same compound yielded a kon on PfLysRS [2] of 26400 M⁻¹ s⁻¹. For the same compound, the IC50 against HsLysRS [3] is > 250 µM; with P. falciparum strain 3D7 (Plasmodium falciparum, 3D7, 72 h) it was 5.61 ± 0.26 µM; in data set [5] it was > 1000 µM. Moreover, the “fold less potent on HsLysRS than on PfLysRS (IC50 ratio)” value on HsLysRS [3] (ATP hydrolysis IC50 HsLysRS versus PfLysRS) was “over 380 fold”. Also, on HsLysRS [4], the “thermal stability of HsLysRS” value is “could not increase the thermal stability”. Besides, the “parasite growth and morphology” value in the data set on P. falciparum strain 3D7 (synchronized ring stage, 25 μM, monitored over 72 h, Giemsa smears) is given as “stopped growing completely until they eventually died”. For the same compound, in data set [6], the half-life range was 22 to 85 h. In addition, in data set [6], the median half-life is reported as 35 h.
For `C[C@H]1CCC[C@H](C[C@H]2Cc3cc(O)cc(O)c3C(=O)O2)O1` [cladosporin], at PfLysRS [7], the IC50 is ~0.004 µM and the “fold lower IC50 on PfLysRS compared to other eukaryotic LysRSs including human LysRS” value is reported as 1000 fold.

In general, Kd refers to the equilibrium constant for the complex coming apart. A word on the koff: it is the first-order rate constant of dissociation. Low values mean slow dissociation, high ones fast dissociation. One may read the kon as a measure of how fast the partners come together. Broadly, the IC50 is the midpoint of a concentration-inhibition curve.
